Values after ≈ are worked out from the molar mass of the structure shown. Where two headings read alike, the source gives them in different places.
What was measured:
[1] = tested on: Escherichia coli K-12 ML 1629; experiment: MIC, serial dilution on nutrient agar; assay type: cell-based; details: K12ML1629; Escherichia coli K-12 ML 1629; nutrient agar, 37°C, 18 hours; read-out: Minimum Inhibitory Concentrations
[2] = tested on: Escherichia coli K-12; experiment: MIC, serial dilution on nutrient agar; assay type: cell-based; details: K12; Escherichia coli K-12; nutrient agar, 37°C, 18 hours; read-out: Minimum Inhibitory Concentrations
[3] = tested on: Pseudomonas aeruginosa A3; experiment: MIC, serial dilution on nutrient agar; assay type: cell-based; details: Pseudomonas aeruginosa A3; nutrient agar, 37°C, 18 hours; read-out: Minimum Inhibitory Concentrations
[4] = tested on: Escherichia coli K-12 ML 1630; experiment: MIC, serial dilution on nutrient agar; assay type: cell-based; details: K12ML1630, 37°C, 18 hours, read-out: Minimum Inhibitory Concentrations
Procedure: (§1) The minimum inhibitory concentrations (mcg/ml) of 1,2'-di-N-[(S)-4-amino-2-hydroxybutyryl]-kanamycin B (abbreviated as 1,2'-AHB-KMB), 1,2'-di-N-[(S)-4-amino-2-hydroxybutyryl]-3',4'-dideoxykanamycin B (abbreviated as 1,2'-AHB-DKB), 1,2'-di-N-DL-isoseryl-3',4'-dideoxykanamycin B (abbreviated as 1,2'-IS-DKB) and 1,2'-di-N-DL-isoseryl-kanamycin B (abbreviated as 1,2'-IS-KMB) against various microorganisms were determined according to serial dilution method using nutrient agar medium at 37°C, the estimation being effected after 18 hours incubation. For comparison, the minimum inhibitory concentrations of kanamycin B (abbreviated as KMB) and 3',4'-dideoxykanamycin B (abbreviated as DKB) were also determined in the same manner as mentioned above.

[5] = tested on: Mycobacterium smegmatis ATCC 607; experiment: MIC, serial dilution on nutrient agar; assay type: cell-based; details: Mycolicibacterium smegmatis, ATCC607; Mycobacterium smegmatis ATCC 607; nutrient agar, 37°C, 18 hours; read-out: Minimum Inhibitory Concentrations
[6] = tested on: Klebsiella pneumoniae PCI 602; experiment: MIC, serial dilution on nutrient agar; assay type: cell-based; details: PCI602; Klebsiella pneumoniae PCI 602; nutrient agar, 37°C, 18 hours; read-out: Minimum Inhibitory Concentrations
[7] = tested on: Staphylococcus aureus FDA 209P; experiment: MIC, serial dilution on nutrient agar; assay type: cell-based; details: FDA209P; Staphylococcus aureus FDA 209P; nutrient agar, 37°C, 18 hours; read-out: Minimum Inhibitory Concentrations
[8] = tested on: Pseudomonas aeruginosa 99; experiment: MIC, serial dilution on nutrient agar; assay type: cell-based; details: Pseudomonas aeruginosa 99; nutrient agar, 37°C, 18 hours; read-out: Minimum Inhibitory Concentrations
[9] = tested on: Pseudomonas aeruginosa TI-13; experiment: MIC, serial dilution on nutrient agar; assay type: cell-based; details: TI13; Pseudomonas aeruginosa TI-13; nutrient agar, 37°C, 18 hours; read-out: Minimum Inhibitory Concentrations
[10] = tested on: Pseudomonas aeruginosa No.12; experiment: MIC, serial dilution on nutrient agar; assay type: cell-based; details: read-out: Minimum Inhibitory Concentrations
[11] = tested on: Escherichia coli LA290 R55; experiment: MIC, serial dilution on nutrient agar; assay type: cell-based; details: LA290R55, 18 h, read-out: Minimum Inhibitory Concentrations
[12] = tested on: Escherichia coli LA290 R64; experiment: MIC, serial dilution on nutrient agar; assay type: cell-based; details: LA290R64, 18 h, read-out: Minimum Inhibitory Concentrations
[13] = tested on: Pseudomonas aeruginosa GN315; experiment: MIC, serial dilution on nutrient agar; assay type: cell-based; details: Pseudomonas aeruginosa GN315; nutrient agar, 37°C, 18 hours; read-out: Minimum Inhibitory Concentrations
[14] = tested on: Klebsiella pneumoniae 22 -3038; experiment: MIC, serial dilution on nutrient agar; assay type: cell-based; details: 223038; Klebsiella pneumoniae 22 -3038; nutrient agar, 37°C, 18 hours; read-out: Minimum Inhibitory Concentrations
[15] = tested on: Escherichia coli W677; experiment: MIC, serial dilution on nutrient agar; assay type: cell-based; details: Escherichia coli W677; nutrient agar, 37°C, 18 hours; read-out: Minimum Inhibitory Concentrations
[16] = tested on: Escherichia coli NIHJ; experiment: MIC, serial dilution on nutrient agar; assay type: cell-based; details: Escherichia coli NIHJ; nutrient agar, 37°C, 18 hours; read-out: Minimum Inhibitory Concentrations
[17] = tested on: Escherichia coli K-12 ML 1410; experiment: MIC, serial dilution on nutrient agar; assay type: cell-based; details: K12ML1410; Escherichia coli K-12 ML 1410; nutrient agar, 37°C, 18 hours; read-out: Minimum Inhibitory Concentrations
[18] = tested on: Escherichia coli LA290 R56; experiment: MIC, serial dilution on nutrient agar; assay type: cell-based; details: LA290R56, 18 h, read-out: Minimum Inhibitory Concentrations
[19] = tested on: Escherichia coli JR66/W677; experiment: MIC, serial dilution on nutrient agar; assay type: cell-based; details: read-out: Minimum Inhibitory Concentrations
[20] = tested on: Salmonella typhosa T-63; experiment: MIC, serial dilution on nutrient agar; assay type: cell-based; details: Salmonella enterica, 18 h, read-out: Minimum Inhibitory Concentrations
[21] = tested on: Bacillus subtilis NRRL B-558; experiment: MIC, serial dilution on nutrient agar; assay type: cell-based; details: NRRLB558; Bacillus subtilis NRRL B-558; nutrient agar, 37°C, 18 hours; read-out: Minimum Inhibitory Concentrations
[22] = tested on: Proteus vulgaris OX 19; experiment: MIC, serial dilution on nutrient agar; assay type: cell-based; details: OX19; Proteus vulgaris OX 19; nutrient agar, 37°C, 18 hours; read-out: Minimum Inhibitory Concentrations
[23] = tested on: Sarcina lutea PCI 1001; experiment: MIC, serial dilution on nutrient agar; assay type: cell-based; details: Micrococcus luteus, PCI1001; Sarcina lutea PCI 1001; nutrient agar, 37°C, 18 hours; read-out: Minimum Inhibitory Concentrations
[24] = tested on: Staphylococcus aureus Smith; experiment: MIC, serial dilution on nutrient agar; assay type: cell-based; details: Staphylococcus aureus Smith; nutrient agar, 37°C, 18 hours; read-out: Minimum Inhibitory Concentrations
[25] = tested on: Shigella flexneri 4b JS 11811; experiment: MIC, serial dilution on nutrient agar; assay type: cell-based; details: 4BJS11811, 37°C, 18 hours, read-out: Minimum Inhibitory Concentrations
Procedure: as §1

[26] = tested on: Shigella sonnei JS 11746; experiment: MIC, serial dilution on nutrient agar; assay type: cell-based; details: JS11746, 37°C, 18 hours, read-out: Minimum Inhibitory Concentrations
Procedure: as §1

[27] = tested on: Corynebacterium bovis 1810; experiment: MIC, serial dilution on nutrient agar; assay type: cell-based; details: Corynebacterium bovis 1810; nutrient agar, 37°C, 18 hours; read-out: Minimum Inhibitory Concentrations
[28] = tested on: Bacillus cereus ATCC 10702; experiment: MIC, serial dilution on nutrient agar; assay type: cell-based; details: ATCC10702; Bacillus cereus ATCC 10702; nutrient agar, 37°C, 18 hours; read-out: Minimum Inhibitory Concentrations
[29] = tested on: Staphylococcus aureus Terejima; experiment: MIC, serial dilution on nutrient agar; assay type: cell-based; details: Staphylococcus aureus Terejima; nutrient agar, 37°C, 18 hours; read-out: Minimum Inhibitory Concentrations
[30] = tested on: Bacillus subtilis PCI 219; experiment: MIC, serial dilution on nutrient agar; assay type: cell-based; details: PCI219; Bacillus subtilis PCI 219; nutrient agar, 37°C, 18 hours; read-out: Minimum Inhibitory Concentrations
[31] = tested on: Shigella dysenteriae JS 11910; experiment: MIC, serial dilution on nutrient agar; assay type: cell-based; details: JS11910, 18 h, read-out: Minimum Inhibitory Concentrations
[32] = tested on: Escherichia coli K-12 ML 1410 R81; experiment: MIC, serial dilution on nutrient agar; assay type: cell-based; details: 18 h, read-out: Minimum Inhibitory Concentrations
[33] = tested on: Salmonella enteritidis 1891; experiment: MIC, serial dilution on nutrient agar; assay type: cell-based; details: Salmonella enterica; Salmonella enteritidis 1891; nutrient agar, 37°C, 18 hours; read-out: Minimum Inhibitory Concentrations
[34] = tested on: Bacillus anthracis; experiment: microbe, parasite or virus in culture; assay type: cell-based; details: 18 h, read-out: Minimum Inhibitory Concentrations
[35] = tested on: drug-resistant bacteria; details: cited from earlier work
[36] = Pseudomonas aeruginosa No.12, nutrient agar, 37°C, 18 hours
[37] = Escherichia coli JR66/W677, nutrient agar, 37°C, 18 hours

Structure (SMILES)	MIC [1] [µg/mL]	MIC [2] [µg/mL]	MIC [3] [µg/mL]	MIC [4] [µg/mL]	MIC [5] [µg/mL]	MIC [6] [µg/mL]	MIC [7] [µg/mL]	MIC [8] [µg/mL]	MIC [9] [µg/mL]	MIC [10, 36] [µg/mL]	MIC [11] [µg/mL]	MIC [12] [µg/mL]	MIC [13] [µg/mL]	MIC [14] [µg/mL]	MIC [15] [µg/mL]	MIC [16] [µg/mL]	MIC [17] [µg/mL]	MIC [18] [µg/mL]	MIC [19, 37] [µg/mL]	also measured
NCC(O)C(=O)N[C@@H]1CC[C@@H](CN)O[C@@H]1O[C@H]1[C@H](O)[C@@H](O[C@H]2O[C@H](CO)[C@@H](O)[C@H](N)[C@H]2O)[C@H](NC(=O)C(O)CN)C[C@@H]1N (mixture of isomers) [1,2'-IS-DKB, 1,2'-di-N-DL-isoseryl-3',4'-dideoxykanamycin B]	6.25	6.25	6.25	6.25	1.56	3.13	1.56	50	12.5	25	6.25	6.25	> 100	12.5	3.13	6.25	6.25	6.25	12.5	–
NCC(O)C(=O)N[C@H]1[C@@H](O[C@H]2[C@H](O)[C@@H](O[C@H]3O[C@H](CO)[C@@H](O)[C@H](N)[C@H]3O)[C@H](NC(=O)C(O)CN)C[C@@H]2N)O[C@H](CN)[C@@H](O)[C@@H]1O (mixture of isomers) [1,2'-IS-KMB, 1,2'-di-N-DL-isoseryl-kanamycin B]	6.25	6.25	12.5	6.25	1.56	3.13	3.13	50	12.5	25	6.25	6.25	> 100	12.5	3.13	6.25	6.25	6.25	25	–
NCC[C@H](O)C(=O)N[C@@H]1CC[C@@H](CN)O[C@@H]1O[C@H]1[C@H](O)[C@@H](O[C@H]2O[C@H](CO)[C@@H](O)[C@H](N)[C@H]2O)[C@H](NC(=O)[C@@H](O)CCN)C[C@@H]1N [1,2'-AHB-DKB, 1,2'-di-N-[(S)-4-amino-2-hydroxybutyryl]-3',4'-dideoxykanamycin B]	3.13 (≈ 4.79 µM)	1.56 (≈ 2.39 µM)	25 (≈ 38.2 µM)	3.13 (≈ 4.79 µM)	0.2 (≈ 0.306 µM)	0.78 (≈ 1.19 µM)	0.78 (≈ 1.19 µM)	50 (≈ 76.5 µM)	12.5 (≈ 19.1 µM)	–	0.78 (≈ 1.19 µM)	0.78 (≈ 1.19 µM)	100 (≈ 153 µM)	1.56 (≈ 2.39 µM)	1.56 (≈ 2.39 µM)	3.13 (≈ 4.79 µM)	3.13 (≈ 4.79 µM)	0.78 (≈ 1.19 µM)	–	MIC [20]: 0.78 µg/mL (≈ 1.19 µM); MIC [21]: 0.2 µg/mL (≈ 0.306 µM); MIC [22]: 0.78 µg/mL (≈ 1.19 µM); MIC [23]: 1.56 µg/mL (≈ 2.39 µM); MIC [24]: 0.2 µg/mL (≈ 0.306 µM); MIC [25]: 6.25 µg/mL (≈ 9.56 µM); MIC [26]: 6.25 µg/mL (≈ 9.56 µM); MIC [27]: 0.78 µg/mL (≈ 1.19 µM); MIC [28]: 1.56 µg/mL (≈ 2.39 µM); MIC [29]: < 0.2 µg/mL; MIC [30]: < 0.2 µg/mL; MIC [31]: 6.25 µg/mL (≈ 9.56 µM); MIC [32]: 1.56 µg/mL (≈ 2.39 µM); MIC [33]: 1.56 µg/mL (≈ 2.39 µM); MIC ([10]; Pseudomonas aeruginosa, NO.12, 18 h): 6.25 µg/mL (≈ 9.56 µM); MIC [34]: < 0.2 µg/mL; MIC ([19]; Escherichia coli, JR66/W677, 18 h): 6.25 µg/mL (≈ 9.56 µM)
NC[C@@H]1CC[C@@H](N)[C@@H](O[C@H]2[C@H](O)[C@@H](O)[C@H](N)C[C@@H]2N)O1 [3',4'-dideoxyneamine]	–	–	–	–	–	–	–	–	–	–	–	–	–	–	–	–	–	–	–	antibacterial activity against the drug-resistant bacteria [35]: improved antibacterial activity
